Results taken from patent publication US20260364184A1, “COMPOUND BASED ON OXOISOINDOLINYL-SUBSTITUTED TETRAHYDROPYRIMIDINE-DIONE AND USE THEREOF” (GLUETACS THERAPEUTICS (SHANGHAI) CO., LTD., priority 2023, published 2026).

Key:
[1] = biological target: T1, ALK (Homo sapiens, UniProt Q9UM73); experiment: Western blot degradation of ALK; type: cell-based; conditions: H2228 Cell; 24 hours
T1 construct: known EML4-ALK variant 3 fusion, ALK kinase part unmutated), Western blot
Description: Conventional Western blot assay was performed to evaluate the effects of the compounds of the present disclosure on the expression of target proteins in cells.
(1) Cell Seeding and Protein Harvesting: The selected cells were processed according to the cell seeding procedure and protein harvesting procedure in Table II-2.
(2) To the collected supernatant, 5×SDS sample loading buffer was added, followed by denaturation at 95 °C for 5 minutes. The denatured samples were then separated by SDS-PAGE electrophoresis on a polyacrylamide gel. Proteins were transferred to a nitrocellulose membrane (0.45 μm NC membrane), blocked with blocking buffer at room temperature for 1 hour, and subjected to antibody incubation and development procedures according to the antibody manufacturer's instructions (Cell Signaling Technology).
Half-Maximal Degradation Concentration value (the drug concentration required for degrading proteins by 50%, abbreviated as DC50) reads method: comparing the grayscale values of Western blot bands from drug-treated samples with those from blank DMSO-treated controls, and identifying the drug concentration range at which the grayscale value is half that of the DMSO-treated control bands.
DC50 values can be calculated using ImageJ software to measure grayscale values of Western blot bands from drug-treated samples. The concentration-response curve is fitted to estimate the drug concentration corresponding to half the grayscale value.
Target protein remaining (%) refers to the percentage of target protein remaining in cells after treatment with protein degrader compounds.
Calculation method for target protein remaining (%): Use ImageJ software to measure grayscale values of Western blot bands from drug (protein degrader)-treated samples. The grayscale value of drug-treated bands is divided by that of internal control protein bands, and the resulting quotient is normalized to obtain the relative percentage of remaining target protein after protein degrader treatment.
Target protein degradation rate (%)=1−target protein remaining (%).

[2] = test system: Human large cell immunoblastic lymphoma cell line SR; experiment: Inhibition of SR cell proliferation (CellTiter luminescent viability); type: cell-based; conditions: Table IB1, ALK inhibitor-based, 96 hours, read-out: Inhibitory activity (IC50, nM) on tumor cell proliferation, SR
Description: The tumor cells used herein were cultured in a cell culture medium listed in table 3 at 37 °C in an incubator with 5% CO2. Prior to experimentation, all cell lines used were correctly identified by STR profiling, and tested negative for mycoplasma contamination using a mycoplasma detection kit through routine screenings.
The IC50 values of the compounds of the present disclosure (including the compounds in Table 1, Table 2, and Examples 1-468) were determined using the CellTiter-Meiluncell Luminescent Cell Viability Assay Kit from Dalian Meilun Biotech Co., Ltd. The detailed procedure is as follows: Tumor cells were seeded in 96-well cell culture plates at the densities specified in Table 4. On the following day, the test compounds of the present disclosure were subjected to serial dilution. The dilution can be performed according to one of the following two methods: • (1) The first dilution method: The test compounds of the present disclosure (including the compounds in Table 1, Table 2, and Examples 1-468) were subjected to 5-fold serial dilutions starting from a highest concentration of 2000 μM, resulting in a total of 9 concentrations from high to low (2000, 400, 80, 16, 3.2, 0.64, 0.128, 0.0256, 0.00512 μM). Subsequently, 0.5 μL of the test compound dilution was transferred into the 96-well plate containing the cells, with each well containing 100 μL of cell culture medium. […] Into the 96-well plate, the diluted test compounds and corresponding detection reagents were added, resulting in final test compound concentrations of 500 nM and 10 nM, respectively. The experimental procedure is described below using the diluted 2 μM test compound as an example.
0.5 μL of the aforementioned diluted compound of the present disclosure (including the compounds in Table 1, Table 2, and Examples 1-468) was added to the seeded cells in 100 μL of medium, yielding a final test compound concentration of 10 nM. After the cells were treated with the compounds of the present disclosure for a specified period, the cell viability assay reagent was added to the culture medium according to the kit's instructions to determine cell viability. […] All controls were treated using the same procedure as the compounds of the present disclosure. The growth inhibition curves for the compounds of the present disclosure were plotted using Prism GraphPad software, and the IC50 values were calculated therefrom.

T1 sequence (Q9UM73 19-1620): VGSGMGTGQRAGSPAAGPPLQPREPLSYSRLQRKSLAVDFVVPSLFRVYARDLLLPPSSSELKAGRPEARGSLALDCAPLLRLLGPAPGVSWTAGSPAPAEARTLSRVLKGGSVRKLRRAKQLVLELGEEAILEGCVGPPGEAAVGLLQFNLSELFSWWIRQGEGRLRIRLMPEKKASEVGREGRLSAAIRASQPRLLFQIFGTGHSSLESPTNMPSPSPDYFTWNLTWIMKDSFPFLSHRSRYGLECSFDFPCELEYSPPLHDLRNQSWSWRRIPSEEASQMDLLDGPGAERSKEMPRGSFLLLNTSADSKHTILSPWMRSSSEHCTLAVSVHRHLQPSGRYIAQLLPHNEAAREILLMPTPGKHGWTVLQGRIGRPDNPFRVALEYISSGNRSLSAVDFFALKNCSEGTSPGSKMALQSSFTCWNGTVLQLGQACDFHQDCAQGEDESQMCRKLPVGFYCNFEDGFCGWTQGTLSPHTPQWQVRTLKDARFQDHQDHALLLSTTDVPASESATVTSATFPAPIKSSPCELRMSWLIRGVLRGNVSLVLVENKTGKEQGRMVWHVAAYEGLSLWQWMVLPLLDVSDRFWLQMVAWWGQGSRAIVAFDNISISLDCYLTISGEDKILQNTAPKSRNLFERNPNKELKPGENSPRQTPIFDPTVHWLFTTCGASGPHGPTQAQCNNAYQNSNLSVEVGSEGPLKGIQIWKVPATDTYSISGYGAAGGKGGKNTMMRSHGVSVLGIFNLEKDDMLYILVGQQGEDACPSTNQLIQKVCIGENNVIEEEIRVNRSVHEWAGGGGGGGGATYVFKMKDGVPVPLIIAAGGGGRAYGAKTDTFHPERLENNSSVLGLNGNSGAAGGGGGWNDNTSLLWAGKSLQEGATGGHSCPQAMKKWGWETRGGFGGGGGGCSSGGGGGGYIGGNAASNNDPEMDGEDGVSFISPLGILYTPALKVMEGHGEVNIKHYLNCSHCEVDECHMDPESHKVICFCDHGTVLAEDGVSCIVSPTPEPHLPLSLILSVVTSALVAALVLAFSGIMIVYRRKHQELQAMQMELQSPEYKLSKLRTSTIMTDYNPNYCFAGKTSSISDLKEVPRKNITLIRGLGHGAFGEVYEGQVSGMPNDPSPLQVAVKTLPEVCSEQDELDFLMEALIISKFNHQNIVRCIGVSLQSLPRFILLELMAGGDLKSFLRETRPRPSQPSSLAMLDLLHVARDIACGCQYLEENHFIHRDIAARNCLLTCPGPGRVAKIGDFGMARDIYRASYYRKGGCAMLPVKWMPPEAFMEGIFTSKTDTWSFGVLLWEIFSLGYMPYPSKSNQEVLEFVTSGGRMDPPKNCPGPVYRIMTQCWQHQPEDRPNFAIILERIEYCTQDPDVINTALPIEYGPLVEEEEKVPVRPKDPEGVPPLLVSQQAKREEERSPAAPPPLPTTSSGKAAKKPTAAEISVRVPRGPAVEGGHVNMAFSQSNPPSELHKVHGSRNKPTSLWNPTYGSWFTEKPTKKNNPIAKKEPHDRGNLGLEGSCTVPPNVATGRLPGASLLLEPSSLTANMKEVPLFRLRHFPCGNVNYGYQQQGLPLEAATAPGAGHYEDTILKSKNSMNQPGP
T1 sequence (Q96SW2 whole entry partner, the tested form may be a part): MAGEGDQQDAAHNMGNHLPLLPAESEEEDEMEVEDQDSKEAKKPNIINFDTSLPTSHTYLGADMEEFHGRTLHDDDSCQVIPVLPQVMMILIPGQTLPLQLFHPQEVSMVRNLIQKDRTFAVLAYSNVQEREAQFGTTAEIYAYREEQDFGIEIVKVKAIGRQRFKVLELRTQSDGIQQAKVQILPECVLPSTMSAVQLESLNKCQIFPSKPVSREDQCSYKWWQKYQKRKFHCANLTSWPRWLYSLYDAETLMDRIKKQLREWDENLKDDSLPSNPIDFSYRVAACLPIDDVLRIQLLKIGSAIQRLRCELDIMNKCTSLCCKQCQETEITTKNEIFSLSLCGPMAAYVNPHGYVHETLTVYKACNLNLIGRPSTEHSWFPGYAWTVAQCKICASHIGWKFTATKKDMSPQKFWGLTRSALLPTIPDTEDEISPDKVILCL

| Structure (SMILES) | Degradation of substrate protein ALK (substrate protein remaining %) [1] | IC50 [2] [nM] |
| --- | --- | --- |
| CCc1cc2c(cc1N1CCC(N3CCN(Cc4ccc5c(c4)C(=O)N(N4CCC(=O)NC4=O)C5=O)CC3)CC1)C(C)(C)c1[nH]c3cc(C#N)ccc3c1C2=O [GT-04661, 8-(4-(4-((2-(2,4-dioxotetrahydropyrimidin-1(2H)-yl)-1,3-dioxoisoindolin-5-yl)methyl)piperazin-1-yl)piperidin-1-yl)-9-ethyl-6,6-dimethyl-11-oxo-6,11-dihydro-5H-benzo[b]carbazole-3-carbonitrile] | A (0%≤substrate protein remaining %≤80%) |  |
| CCc1cc2c(cc1N1CCC(N3CCN(Cc4ccc5c(c4)CN(N4CCC(=O)NC4=O)C5=O)CC3)CC1)C(C)(C)c1[nH]c3cc(C#N)ccc3c1C2=O [GT-06822, 8-(4-(4-((2-(2,4-dioxotetrahydropyrimidin-1(2H)-yl)-1-oxoisoindolin-5-yl)methyl)piperazin-1-yl)piperidin-1-yl)-9-ethyl-6,6-dimethyl-11-oxo-6,11-dihydro-5H-benzo[b]carbazole-3-carbonitrile] | A (0%≤substrate protein remaining %≤80%) | 10 to 50 |
| CCc1cc2c(cc1N1CCC(N3CCN(CC4CCN(c5ccc6c(c5)C(=O)N(N5CCC(=O)NC5=O)C6=O)CC4)CC3)CC1)C(C)(C)c1[nH]c3cc(C#N)ccc3c1C2=O [GT-06823, 8-(4-(4-((1-(2-(2,4-dioxotetrahydropyrimidin-1(2H)-yl)-1,3-dioxoisoindolin-5-yl)piperidin-4-yl)methyl)piperazin-1-yl)piperidin-1-yl)-9-ethyl-6,6-dimethyl-11-oxo-6,11-dihydro-5H-benzo[b]carbazole-3-carbonitrile] | A (0%≤substrate protein remaining %≤80%) | 10 to 50 |
| CCc1cc2c(cc1N1CCC(N3CCN(CC4CCN(c5cccc6c5C(=O)N(N5CCC(=O)NC5=O)C6=O)CC4)CC3)CC1)C(C)(C)c1[nH]c3cc(C#N)ccc3c1C2=O [GT-07298, 8-(4-(4-((1-(2-(2,4-dioxotetrahydropyrimidin-1(2H)-yl)-1,3-dioxoisoindolin-4-yl)piperidin-4-yl)methyl)piperazin-1-yl)piperidin-1-yl)-9-ethyl-6,6-dimethyl-11-oxo-6,11-dihydro-5H-benzo[b]carbazole-3-carbonitrile] | A (0%≤substrate protein remaining %≤80%) | 10 to 50 |
| CCc1cc2c(cc1N1CCN(Cc3ccc4c(c3)C(=O)N(N3CCC(=O)NC3=O)C4=O)CC1)C(C)(C)c1[nH]c3cc(C#N)ccc3c1C2=O [GT-07320, 8-(4-((2-(2,4-dioxotetrahydropyrimidin-1(2H)-yl)-1,3-dioxoisoindolin-5-yl)methyl)piperazin-1-yl)-9-ethyl-6,6-dimethyl-11-oxo-6,11-dihydro-5H-benzo[b]carbazole-3-carbonitrile] | A (0%≤substrate protein remaining %≤80%) | 100 to 300 |
| CCc1cc2c(cc1N1CCN(CC3CCN(c4ccc5c(c4)C(=O)N(N4CCC(=O)NC4=O)C5=O)CC3)CC1)C(C)(C)c1[nH]c3cc(C#N)ccc3c1C2=O [GT-07321, 8-(4-((1-(2-(2,4-dioxotetrahydropyrimidin-1(2H)-yl)-1,3-dioxoisoindolin-5-yl)piperidin-4-yl)methyl)piperazin-1-yl)-9-ethyl-6,6-dimethyl-11-oxo-6,11-dihydro-5H-benzo[b]carbazole-3-carbonitrile] | A (0%≤substrate protein remaining %≤80%) | 50 to 100 |
| CCc1cc2c(cc1N1CCN(CC3CCN(c4cccc5c4C(=O)N(N4CCC(=O)NC4=O)C5=O)CC3)CC1)C(C)(C)c1[nH]c3cc(C#N)ccc3c1C2=O [GT-07322, 8-(4-((1-(2-(2,4-dioxotetrahydropyrimidin-1(2H)-yl)-1,3-dioxoisoindolin-4-yl)piperidin-4-yl)methyl)piperazin-1-yl)-9-ethyl-6,6-dimethyl-11-oxo-6,11-dihydro-5H-benzo[b]carbazole-3-carbonitrile] | A (0%≤substrate protein remaining %≤80%) | 10 to 50 |
| CCc1cc2c(cc1N1CCN(Cc3ccc4c(c3)CN(N3CCC(=O)NC3=O)C4=O)CC1)C(C)(C)c1[nH]c3cc(C#N)ccc3c1C2=O [GT-07340, 8-(4-((2-(2,4-dioxotetrahydropyrimidin-1(2H)-yl)-1-oxoisoindolin-5-yl)methyl)piperazin-1-yl)-9-ethyl-6,6-dimethyl-11-oxo-6,11-dihydro-5H-benzo[b]carbazole-3-carbonitrile] | A (0%≤substrate protein remaining %≤80%) | 10 to 50 |
| COc1cc(N2CCN(Cc3ccc4c(c3)CN(N3CCC(=O)NC3=O)C4=O)CC2)ccc1Nc1ncc(Cl)c(Nc2ccccc2P(C)(C)=O)n1 [GT-07341, 1-(5-((4-(4-((5-chloro-4-((2-(dimethylphosphoryl)phenyl)amino)pyrimidin-2-yl)amino)-3-methoxyphenyl)piperazin-1-yl)methyl)-1-oxoisoindolin-2-yl)dihydropyrimidine-2,4 (1H,3H)-dione] | A (0%≤substrate protein remaining %≤80%) | 10 to 50 |
| COc1cc(N2CCN(Cc3ccc4c(c3)C(=O)N(N3CCC(=O)NC3=O)C4=O)CC2)ccc1Nc1ncc(Cl)c(Nc2ccccc2P(C)(C)=O)n1 [GT-07342, 5-((4-(4-((5-chloro-4-((2-(dimethylphosphoryl)phenyl)amino)pyrimidin-2-yl)amino)-3-methoxyphenyl)piperazin-1-yl)methyl)-2-(2,4-dioxotetrahydropyrimidin-1(2H)-yl)isoindoline-1,3-dione] | A (0%≤substrate protein remaining %≤80%) | 100 to 300 |
| COc1cc(N2CCN(CC3CCN(c4ccc5c(c4)C(=O)N(N4CCC(=O)NC4=O)C5=O)CC3)CC2)ccc1Nc1ncc(Cl)c(Nc2ccccc2P(C)(C)=O)n1 [GT-07343, 5-(4-((4-(4-((5-chloro-4-((2-(dimethylphosphoryl)phenyl)amino)pyrimidin-2-yl)amino)-3-methoxyphenyl)piperazin-1-yl)methyl)piperidin-1-yl)-2-(2,4-dioxotetrahydropyrimidin-1(2H)-yl)isoindoline-1,3-dione] | A (0%≤substrate protein remaining %≤80%) | 50 to 100 |
| COc1cc(N2CCC(CN3CC4CCC(C3)N4c3ccc4c(c3)C(=O)N(N3CCC(=O)NC3=O)C4=O)CC2)ccc1Nc1ncc(Cl)c(Nc2ccccc2P(C)(C)=O)n1 [GT-08530, 5-(3-((1-(4-((5-chloro-4-((2-(dimethylphosphoryl)phenyl)amino)pyrimidin-2-yl)amino)-3-methoxyphenyl)piperidin-4-yl)methyl)-3,8-diazabicyclo[3.2.1]octan-8-yl)-2-(2,4-dioxotetrahydropyrimidin-1(2H)-yl)isoindoline-1,3-dione] | A (0%≤substrate protein remaining %≤80%) |  |
